The record followed here is ChEMBL document CHEMBL1201862, “PubChem BioAssay data set” (2004).

Calls of active or inactive are those of the source.

Assay [1] is described as follows: growth induction of Burl-1 ts yeast mutant, dose response, counter-screen for SUMOylation pathway inhibitor project, whole organism, S. cerevisiae, luminescence (AID 463199). It is filed as functional.
Assay [2] concerns the target T1, Tyrosine-protein phosphatase non-receptor type 7 (Homo sapiens, UniProt P35236).
T1 sequence (P35236 whole entry): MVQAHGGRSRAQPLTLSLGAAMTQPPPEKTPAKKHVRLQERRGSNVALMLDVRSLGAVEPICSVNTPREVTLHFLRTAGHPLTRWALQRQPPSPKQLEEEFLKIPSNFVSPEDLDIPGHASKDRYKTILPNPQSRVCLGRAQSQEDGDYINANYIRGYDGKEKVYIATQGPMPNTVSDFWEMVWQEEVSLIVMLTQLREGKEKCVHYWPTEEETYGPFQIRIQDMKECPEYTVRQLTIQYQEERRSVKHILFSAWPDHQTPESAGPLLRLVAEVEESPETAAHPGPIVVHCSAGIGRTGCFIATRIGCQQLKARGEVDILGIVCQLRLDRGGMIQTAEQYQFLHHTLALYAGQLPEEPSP
Put plainly: SAR analysis of chemical inhibitors of HePTP using a Fluorescent assay - Set 2. [Related pubchem assays (depositor defined):AID1059, AID1077, AID1661, AID2085, AID521]. It is filed as functional.

For assay [3], the target named is Dual specificity protein phosphatase 3 (Homo sapiens, UniProt P51452). Put plainly: SAR VHR1 Fluorescent Assay for In Vitro dose response studies Set 2. [Related pubchem assays (depositor defined):AID1654, AID1661, AID1878]. It is filed as functional.
Chain of Dual specificity protein phosphatase 3 (P51452 whole entry): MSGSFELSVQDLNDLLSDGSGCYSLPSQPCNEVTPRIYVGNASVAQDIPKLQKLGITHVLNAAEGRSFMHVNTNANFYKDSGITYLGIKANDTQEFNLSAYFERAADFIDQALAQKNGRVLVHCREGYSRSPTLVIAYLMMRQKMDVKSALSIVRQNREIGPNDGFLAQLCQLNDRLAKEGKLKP
For assay [4], the system named is Streptococcus sp. 'group A'. Briefly: growth inhibition of control SK(-) GAS strain, dose response, counter-screen for streptokinase expression inhibitor project, luminescence, kanamycin, BacTiterGlo, confirmation (AID 1900). It is filed as functional, organism-based.
Assay [5] is described as follows: Vero E6 cell cytotoxicity, dose response, cytotoxicity control for non-replicating M. tuberculosis project, secondary assay (AID 492998). It is filed as functional, VeroE6. Particulars: Vero C1008.
Assay [6] in a line: THP-1 cell cytotoxicity, dose response, cytotoxicity control for non-replicating M. tuberculosis project (AID 489025). It is filed as functional.
Assay [7] addresses T2, Streptokinase A (Streptococcus pyogenes serotype M1, UniProt P10520).
T2 sequence (P10520 whole entry): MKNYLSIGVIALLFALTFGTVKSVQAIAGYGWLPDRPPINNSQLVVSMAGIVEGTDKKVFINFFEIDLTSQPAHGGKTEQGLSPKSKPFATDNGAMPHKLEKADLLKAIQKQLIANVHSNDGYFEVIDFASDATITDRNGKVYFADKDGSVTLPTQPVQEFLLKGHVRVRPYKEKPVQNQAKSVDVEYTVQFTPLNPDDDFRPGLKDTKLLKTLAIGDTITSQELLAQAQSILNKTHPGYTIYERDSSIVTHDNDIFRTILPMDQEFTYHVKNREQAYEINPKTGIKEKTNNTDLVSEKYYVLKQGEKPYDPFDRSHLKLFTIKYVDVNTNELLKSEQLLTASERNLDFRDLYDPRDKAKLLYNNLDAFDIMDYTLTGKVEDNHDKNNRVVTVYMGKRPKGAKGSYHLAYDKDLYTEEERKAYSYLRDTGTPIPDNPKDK
Put plainly: S. pyogenes streptokinase expression inhibitors, potency, dose response, plasminogen activation absorbance, OD405 (AID 1914).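 Also: secreted streptokinase activity via plasminogen activation per viability signal from cell pellet.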 It is filed as functional, Streptococcus pyogenes M1 GAS.

Assay [8] deals with Streptococcus. Put plainly: Group A Streptococcus viability loss, dose response, counter-screen for streptokinase expression inhibitor project, luminescence, BacTiterGlo (AID 1915).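 Also: potency for reduction of bacterial viability or growth.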 It is filed as functional, organism-based.
Assay [9] can be described thus: cells. It is filed as functional.
Assay [10] deals with T3, Ubiquitin-conjugating enzyme E2 N (Homo sapiens, UniProt P61088).
T3 sequence (P61088 whole entry): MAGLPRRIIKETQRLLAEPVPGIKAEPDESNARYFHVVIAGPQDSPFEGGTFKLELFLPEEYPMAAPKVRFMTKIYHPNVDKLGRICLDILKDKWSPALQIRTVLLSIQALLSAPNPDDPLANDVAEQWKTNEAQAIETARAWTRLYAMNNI
It is filed as functional.

The target in assay [11] is T4, Bcl-2-related protein A1 (Mus musculus, UniProt Q07440).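 Also: confirmatory dose–response counterscreen on Bfl-1, used to check hits from a UBC13 polyubiquitin inhibitor campaign.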
T4 sequence (Q07440 whole entry): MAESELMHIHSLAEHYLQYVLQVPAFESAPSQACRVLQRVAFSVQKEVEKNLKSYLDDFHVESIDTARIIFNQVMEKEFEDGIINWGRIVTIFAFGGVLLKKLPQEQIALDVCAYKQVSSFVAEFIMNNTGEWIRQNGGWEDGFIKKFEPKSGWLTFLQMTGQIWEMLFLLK
It is filed as functional.

The target of assay [12] is T3, Ubiquitin-conjugating enzyme E2 N. It is filed as functional. This is another data set of the same source.
Assay [13] in a line: Luminescence Cell-Based Dose Response HTS to Identify Activators of Luciferase Translation or Activity in H4 […] Cells. [Related pubchem assays: 1829 (Project Summary), 1814 (Primary HTS)]. It is filed as functional.
Assay [14] has as its target Alkaline phosphatase, placental type (Homo sapiens, UniProt P05187). Briefly: PLAP enzyme inhibitors, confirmation, biochemical, luminescence (AID 1512). It is filed as functional.
The target of assay [15] is T5, Alkaline phosphatase, tissue-nonspecific isozyme (Homo sapiens, UniProt P05186).
T5 sequence (P05186 whole entry): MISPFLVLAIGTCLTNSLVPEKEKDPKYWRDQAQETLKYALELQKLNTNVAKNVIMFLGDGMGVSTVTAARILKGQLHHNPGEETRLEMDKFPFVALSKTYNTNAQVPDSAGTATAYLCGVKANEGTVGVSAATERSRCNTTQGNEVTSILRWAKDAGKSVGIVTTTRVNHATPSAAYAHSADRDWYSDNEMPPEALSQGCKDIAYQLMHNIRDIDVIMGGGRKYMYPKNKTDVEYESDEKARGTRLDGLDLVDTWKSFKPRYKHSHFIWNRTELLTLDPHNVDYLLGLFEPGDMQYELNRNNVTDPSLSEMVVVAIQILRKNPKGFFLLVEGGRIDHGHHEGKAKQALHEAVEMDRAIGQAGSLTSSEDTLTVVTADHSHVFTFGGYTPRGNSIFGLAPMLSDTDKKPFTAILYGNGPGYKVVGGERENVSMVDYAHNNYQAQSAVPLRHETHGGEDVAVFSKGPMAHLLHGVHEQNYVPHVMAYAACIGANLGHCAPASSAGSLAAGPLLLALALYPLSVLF
Briefly: human TNAP enzyme inhibitors, SAR follow-up, biochemical, luminescent, dose response (AID 1056).

For assay [16], the target named is E3 ubiquitin-protein ligase XIAP (Homo sapiens, UniProt P98170). Briefly: Counter Screen using XIAP-Bir3 for Chemical Antagonists of Bir1/2 domains of IAP-family anti-apoptotic proteins. [Related pubchem assays (depositor defined):AID1018, AID1449, AID1514, AID1638, AID1749, AID1750, AID488957, AID488963].
Chain of E3 ubiquitin-protein ligase XIAP (P98170 whole entry): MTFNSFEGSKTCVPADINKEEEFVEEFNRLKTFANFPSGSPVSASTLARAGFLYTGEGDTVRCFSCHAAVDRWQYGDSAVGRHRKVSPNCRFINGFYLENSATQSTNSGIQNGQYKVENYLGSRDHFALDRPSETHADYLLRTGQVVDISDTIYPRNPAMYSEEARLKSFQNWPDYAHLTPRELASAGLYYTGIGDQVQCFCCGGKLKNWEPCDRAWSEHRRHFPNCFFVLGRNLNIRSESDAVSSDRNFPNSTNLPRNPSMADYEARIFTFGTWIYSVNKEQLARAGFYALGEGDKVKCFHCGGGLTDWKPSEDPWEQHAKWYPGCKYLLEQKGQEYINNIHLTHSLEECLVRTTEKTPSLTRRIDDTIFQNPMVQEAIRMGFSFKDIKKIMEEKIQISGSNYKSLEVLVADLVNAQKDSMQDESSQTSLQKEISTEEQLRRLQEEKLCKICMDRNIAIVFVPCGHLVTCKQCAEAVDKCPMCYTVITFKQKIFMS
For assay [17], the target named is Eukaryotic translation initiation factor 4E (Mus musculus, UniProt P63073). Put plainly: eIF4E–eIF4G protein interaction inhibitors, dose response, biochemical, TR-FRET (AID 855).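 Also: potency for disrupting eIF4E binding to eIF4GI seen as loss of FRET.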 It is filed as functional.
Chain of Eukaryotic translation initiation factor 4E (P63073 whole entry): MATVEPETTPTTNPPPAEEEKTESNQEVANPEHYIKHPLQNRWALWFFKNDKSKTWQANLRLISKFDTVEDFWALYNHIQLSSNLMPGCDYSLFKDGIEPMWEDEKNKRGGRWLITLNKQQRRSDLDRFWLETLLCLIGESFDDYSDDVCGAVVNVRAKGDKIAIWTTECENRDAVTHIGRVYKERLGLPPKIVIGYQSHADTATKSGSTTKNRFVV
The nature of assay [18]: Luminescence Cell-Based Dose Retest to Confirm Inhibitors of Cancer Stem Cells. [Related pubchem assays (depositor defined):AID2717, AID2721]. It is filed as functional. Particulars: Homo sapiens.
Assay [19] addresses T6, Rac GTPase-activating protein 1 (Homo sapiens, UniProt Q9H0H5).
T6 sequence (Q9H0H5 whole entry): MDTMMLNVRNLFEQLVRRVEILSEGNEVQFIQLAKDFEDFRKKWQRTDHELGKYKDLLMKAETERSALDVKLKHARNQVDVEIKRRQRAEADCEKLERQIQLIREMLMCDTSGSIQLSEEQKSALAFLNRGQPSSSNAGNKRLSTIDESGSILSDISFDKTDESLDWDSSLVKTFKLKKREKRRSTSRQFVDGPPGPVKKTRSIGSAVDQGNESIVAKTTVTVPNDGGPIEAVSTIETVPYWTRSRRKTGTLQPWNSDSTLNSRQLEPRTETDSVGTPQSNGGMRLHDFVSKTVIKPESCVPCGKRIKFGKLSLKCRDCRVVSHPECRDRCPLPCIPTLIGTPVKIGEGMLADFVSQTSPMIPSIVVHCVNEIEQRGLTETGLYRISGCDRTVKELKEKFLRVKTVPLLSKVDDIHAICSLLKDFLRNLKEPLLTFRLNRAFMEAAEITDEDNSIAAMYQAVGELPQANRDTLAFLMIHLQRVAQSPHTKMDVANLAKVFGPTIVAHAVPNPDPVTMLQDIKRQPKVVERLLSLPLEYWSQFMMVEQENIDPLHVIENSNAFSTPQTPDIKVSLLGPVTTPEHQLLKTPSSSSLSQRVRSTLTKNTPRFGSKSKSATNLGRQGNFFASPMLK
Put plainly: MgcRacGAP GTPase-activating activity inhibitors, confirmation, biochemical, ADP Hunter fluorescence, primary and confirmatory (AID 624330). It is filed as functional.

The target in assay [20] is T7, Microphthalmia-associated transcription factor (Homo sapiens, UniProt O75030).
T7 sequence (O75030 whole entry): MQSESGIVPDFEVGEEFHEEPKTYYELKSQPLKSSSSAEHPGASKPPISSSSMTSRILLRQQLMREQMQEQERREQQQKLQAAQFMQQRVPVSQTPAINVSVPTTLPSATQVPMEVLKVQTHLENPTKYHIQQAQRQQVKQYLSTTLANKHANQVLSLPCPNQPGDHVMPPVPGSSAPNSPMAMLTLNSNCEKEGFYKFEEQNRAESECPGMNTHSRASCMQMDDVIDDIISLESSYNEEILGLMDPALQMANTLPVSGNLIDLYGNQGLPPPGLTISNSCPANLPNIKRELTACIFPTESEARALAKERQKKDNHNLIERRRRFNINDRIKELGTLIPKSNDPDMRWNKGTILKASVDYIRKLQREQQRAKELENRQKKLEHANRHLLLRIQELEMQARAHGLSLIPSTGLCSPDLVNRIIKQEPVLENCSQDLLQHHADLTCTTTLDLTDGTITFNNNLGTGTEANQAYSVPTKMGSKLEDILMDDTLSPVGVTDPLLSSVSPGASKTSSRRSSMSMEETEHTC
Briefly: TRPM1 promoter luciferase signal decrease, dose response, MITF inhibitor project, cell-based, SK-MEL-5, cherry-picked, set 3 (AID 493073).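 Also: SK-MEL-5 melanoma cells with luciferase driven by the MITF target TRPM1 promoter.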 It is filed as functional.

The target in assay [21] is T8, Heat shock factor protein 1 (Mus musculus, UniProt P38532).
T8 sequence (P38532 whole entry): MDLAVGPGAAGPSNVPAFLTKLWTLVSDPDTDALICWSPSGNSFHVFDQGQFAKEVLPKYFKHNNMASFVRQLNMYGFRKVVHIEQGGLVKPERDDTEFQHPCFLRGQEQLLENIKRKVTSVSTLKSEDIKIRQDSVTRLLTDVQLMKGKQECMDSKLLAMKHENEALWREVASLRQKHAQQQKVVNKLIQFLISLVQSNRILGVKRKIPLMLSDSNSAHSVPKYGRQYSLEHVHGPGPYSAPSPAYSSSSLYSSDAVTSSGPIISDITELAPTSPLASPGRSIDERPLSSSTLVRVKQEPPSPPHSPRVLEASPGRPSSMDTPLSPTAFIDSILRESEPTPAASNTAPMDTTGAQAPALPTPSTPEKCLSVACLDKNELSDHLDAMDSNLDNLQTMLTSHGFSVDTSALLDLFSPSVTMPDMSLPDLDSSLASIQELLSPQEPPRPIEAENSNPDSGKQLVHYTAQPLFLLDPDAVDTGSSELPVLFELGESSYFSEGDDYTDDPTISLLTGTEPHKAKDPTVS
Briefly: inhibition of MG132-induced HSE-luciferase signal, confirmation, cell-based, NIH3T3, luminescence, dose retest (AID 2382).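 Also: NIH3T3 fibroblasts with HSF1-driven luciferase reporter stressed by proteasome inhibitor MG132; luminescence from HSF1-driven luciferase expression after 8 hours of MG132 stress.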 It is filed as functional.

Chain of Alkaline phosphatase, placental type (P05187 whole entry): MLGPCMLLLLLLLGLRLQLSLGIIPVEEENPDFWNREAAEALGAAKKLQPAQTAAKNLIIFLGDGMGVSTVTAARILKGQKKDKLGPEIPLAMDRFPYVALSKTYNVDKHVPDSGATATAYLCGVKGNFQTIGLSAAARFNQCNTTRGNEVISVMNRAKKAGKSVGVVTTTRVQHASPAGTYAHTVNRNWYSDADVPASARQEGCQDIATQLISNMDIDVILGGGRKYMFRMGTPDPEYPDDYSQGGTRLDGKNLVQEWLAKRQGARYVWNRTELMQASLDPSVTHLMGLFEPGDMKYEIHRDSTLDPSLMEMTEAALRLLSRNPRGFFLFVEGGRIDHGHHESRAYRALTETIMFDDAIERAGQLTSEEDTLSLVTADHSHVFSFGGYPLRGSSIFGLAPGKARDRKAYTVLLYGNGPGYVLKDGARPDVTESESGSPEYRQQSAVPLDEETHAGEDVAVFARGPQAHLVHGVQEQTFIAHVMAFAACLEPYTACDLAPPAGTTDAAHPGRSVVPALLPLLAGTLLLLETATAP

As for `Cc1ccc(NC2c3ncccc3C(=O)N2C2CCCCC2)cc1C` (centres undefined), the AC50 in [1] is 161 µM (active).

For `Oc1ccc(CCNC(=S)Nc2ccc(Cl)cc2Cl)cc1O`, the IC50 in assay [2] was 18.8 µM (active); in [3], 30.5 µM (active).

In the case of `COc1ccc(C(=O)Nc2nnc(-c3ccccc3)o2)cc1OC`, the values for the concentration for a half-maximal effect (EC50) in [4], in assay [7] and in [8] were 6.46 µM (active), > 150 µM (not active) and > 150 µM (not active), respectively. Also, the CC50 in [5] is > 20 µM (active); in assay [6], > 40 µM (active). Besides, the IC50 in assay [9] was 17.2 µM (active).

On to `CCCOc1ccc(C(=S)NCc2ccc(F)c(C(F)(F)F)c2)cc1`, for which the IC50 in assay [2] is 39.2 µM (active); in [3], 71.7 µM (active).

For `C#CCOCCOCCOCCNc1nc(N2CCN(C(=O)C([C@@H](C)O)n3cc([C@@H](N)CCCCN)nn3)CC2)nc(N2CCN(C(=O)[C@H](CO)n3cc([C@@H](N)C(C)C)nn3)CC2)n1` (some centres undefined), the IC50 in [10] was 8.01 µM (active); in assay [11] it was > 20 µM (inactive); in assay [12], 7.85 µM (active).

Consider `CSCCC(NC(=O)COc1ccccc1)C(=O)N1CCC(C(N)=O)CC1` (centres undefined), for which the figures for the half-maximal inhibitory concentration (IC50) in [10], in assay [11] and in [12] were 12.3 µM (active), > 20 µM (inactive) and > 20 µM (inactive), respectively.

`O=C(CSc1nnc(CNC(=O)c2ccco2)o1)Nc1nc2ccccc2s1`: in assay [1], the AC50 is 54 µM (active).

As to `Clc1ccccc1-c1n[nH]c(-c2ccccc2)n1`, the EC50 in assay [13] is 0.348 µM (active). Moreover, the values for the IC50 in assay [14] and in assay [15] were > 100 µM (inactive) and 0.641 µM (active), respectively.

As for `CC(=O)Nc1ccc(/N=C/c2c(O)c(C(=O)Nc3ccccc3)cc3ccccc23)cc1`, the IC50 in assay [16] is > 20 µM (inactive); in assay [17], 50 µM (inactive). Moreover, the concentration at half-maximal activity (AC50) in assay [18] was 1.01 µM (active).

For `Nc1ccc2c(c1)OC1(CCCC1)O2`, the IC50 is 31.5 µM (active) in assay [19], > 100 µM (inactive) in [14] and > 100 µM (inactive) in assay [15]. Also, in [20], the half-maximal activity concentration (AC50) is 11.2 µM (active). Besides, the concentration for a half-maximal effect (EC50) in assay [21] was 4.26 µM (active).
